{"source": "ChEMBL document CHEMBL1127391", "about": "“Generally applicable, convenient solid-phase synthesis and receptor affinities of octreotide analogs” (J Med Chem, 1994)", "target": "Somatostatin receptor", "test": "Dissociation constant binding to somatostatin receptor of At-20 mouse pituitary carcinoma cell membranes", "conditions": "pituitary gland cell", "data": [{"compound": "C[C@H](O)[C@H](CO)NC(=O)[C@H](CS)NC(=O)[C@@H](NC(=O)[C@H](CCCCN)NC(=O)[C@@H](Cc1c[nH]c2ccccc12)NC(=O)[C@H](Cc1ccccc1)NC(=O)[C@H](CS)NC(=O)[C@@H](Cc1ccccc1)NC(=O)CN(CCN(CCN(CC(=O)O)CC(=O)O)CC(=O)O)CC(=O)O)[C@@H](C)O", "values": [{"measurement": "Kd", "result": 5.57, "unit": "nM"}]}]}
